Test results from PubChem BioAssay (NCI).
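48-hour exposure; five concentrations; linearly interpolated endpoints. At the TGI there is no net growth.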

Experiments:
Assay in all cases: NCI tumour cell line growth inhibition, 48 h
[1] = test system: SW-620 colon
[2] = test system: SNB-75 CNS
[3] = test system: SK-MEL-5 melanoma
[4] = test system: CCRF-CEM leukemia
[5] = test system: DU-145 prostate
[6] = test system: TK-10 renal
[7] = test system: SF-295 CNS
[8] = test system: HCC-2998 colon
[9] = test system: HCT-116 colon
[10] = test system: HOP-62 NSCLC
[11] = test system: NCI/ADR-RES ovarian
[12] = test system: HL-60(TB) leukemia
[13] = test system: UACC-257 melanoma
[14] = test system: HOP-92 NSCLC
[15] = test system: SNB-19 CNS
[16] = test system: M14 melanoma
[17] = test system: OVCAR-8 ovarian
[18] = test system: SF-539 CNS
[19] = test system: OVCAR-3 ovarian
[20] = test system: COLO 205 colon
[21] = test system: OVCAR-4 ovarian
[22] = test system: HT29 colon
[23] = test system: SF-268 CNS
[24] = test system: CAKI-1 renal
[25] = test system: MALME-3M melanoma
[26] = test system: EKVX NSCLC
[27] = test system: KM12 colon
[28] = test system: A549 NSCLC
[29] = test system: NCI-H23 lung
[30] = test system: SR leukemia
[31] = test system: SK-MEL-28 melanoma
[32] = test system: HCT-15 colon
[33] = test system: MDA-N
[34] = test system: RPMI-8226 leukemia
[35] = test system: MDA-MB-435
[36] = test system: U251 CNS
[37] = test system: SK-MEL-2 melanoma
[38] = test system: HS 578T breast
[39] = test system: RXF 393 renal
[40] = test system: BT-549 breast
[41] = test system: NCI-H460 lung
[42] = test system: 786-0 renal
[43] = test system: IGROV1 ovarian
[44] = test system: LOX IMVI melanoma
[45] = test system: T-47D breast
[46] = test system: NCI-H522 lung
[47] = test system: ACHN renal
[48] = test system: MCF7 breast
[49] = test system: K-562 leukemia
[50] = test system: MDA-MB-231 breast
[51] = test system: MOLT-4 leukemia
[52] = test system: PC-3 prostate
[53] = test system: OVCAR-5 ovarian
[54] = test system: UO-31 renal
[55] = test system: UACC-62 melanoma
[56] = test system: SN12C renal
[57] = test system: A498 renal

Measured: TGI

CC1=NN(C(=O)CC(=O)Nc2cccc(Cl)c2)C(=O)C1N=Nc1ccc(C(=O)O)cc1 (configuration not stated)
> 100 µM: [1] | [2] | [3] | [4] | [5] | [6] | [7] | [8] | [9] | [10] | [11] | [12] | [13] | [14] | [15] | [16] | [17] | [18] | [19] | [20] | [21] | [22] | [23] | [24] | [25] | [26] | [27] | [28] | [29] | [30] | [31] | [32] | [33] | [34] | [35] | [36] | [37] | [38] | [39] | [40] | [41] | [42] | [43] | [44] | [45] | [46] | [47] | [48] | [49] | [50] | [51] | [52] | [53] | [54] | [55] | [56] | [57]
